This is an account of results in ChEMBL document CHEMBL4368907 (J Med Chem, 2019).

The term IC50 denotes the concentration that gives 50% inhibition. A high value points to a need for much substance. Broadly, the EC50 is the concentration at which the effect is half-maximal.

Numbered stars: 1 amine (or outer) side, 2 acyl side, 3 side chain; on linkers, the order of the positions; unused ones are H or OH. Square brackets hold non-standard residues; d marks the D form. Peptide text beside a SMILES is read from it. * marks the point of attachment. Phe(4-CH2SO3H) = N[C@@H](Cc1ccc(CS(=O)(=O)O)cc1)C(=O)O; sY = N[C@@H](Cc1ccc(OS(=O)(=O)O)cc1)C(=O)O; C18 diacid = O=C(O)CCCCCCCCCCCCCCCCC(=O)*; C16 diacid = O=C(O)CCCCCCCCCCCCCCC(=O)*; γGlu = O=C(O)[C@H](CCC(=O)[*:2])N[*:1]; NMeF = CN[C@@H](Cc1ccccc1)C(=O)O; dNMeD = CN[C@H](CC(=O)O)C(=O)O; Nle = CCCC[C@H](N)C(=O)O; AEEA = NCCOCCOCC(=O)O

The target of assay [1] is T1, Cholecystokinin receptor type A (Homo sapiens, UniProt P32238).
T1 sequence (P32238 whole entry): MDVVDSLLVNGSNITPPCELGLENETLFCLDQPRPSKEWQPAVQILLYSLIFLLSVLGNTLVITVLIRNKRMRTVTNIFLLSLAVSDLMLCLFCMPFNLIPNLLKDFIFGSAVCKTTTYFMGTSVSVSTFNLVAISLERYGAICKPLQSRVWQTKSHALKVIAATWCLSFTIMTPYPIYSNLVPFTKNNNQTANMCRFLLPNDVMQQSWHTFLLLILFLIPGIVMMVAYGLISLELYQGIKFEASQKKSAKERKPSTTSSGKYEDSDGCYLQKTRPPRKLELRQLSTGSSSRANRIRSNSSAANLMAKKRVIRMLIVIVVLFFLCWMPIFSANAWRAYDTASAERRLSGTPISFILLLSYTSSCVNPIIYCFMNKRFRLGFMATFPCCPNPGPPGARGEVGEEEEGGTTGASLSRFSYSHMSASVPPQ
The assay is described as follows: Displacement of [125I]-CCK-8 from human CCK1R expressed in human 1321N1 cell membranes after 2 hrs by SPA assay. On the technique in general: Loss of bound radioactivity is the signal in a displacement assay; it reports binding, not function.

The target in assay [2] is T1, Cholecystokinin receptor type A. The assay is described as follows: Agonist activity at human CCK1R expressed in human 1321N1 cells assessed as IP1 accumulation after 1 hr by HTRF assay. In kind it is functional, cell-based. A general note: TR-FRET usually uses a lanthanide donor and a delayed reading to cut background.
In assay [3] the target is T2, Gastrin/cholecystokinin type B receptor (Homo sapiens, UniProt P32239).
T2 sequence (P32239 whole entry): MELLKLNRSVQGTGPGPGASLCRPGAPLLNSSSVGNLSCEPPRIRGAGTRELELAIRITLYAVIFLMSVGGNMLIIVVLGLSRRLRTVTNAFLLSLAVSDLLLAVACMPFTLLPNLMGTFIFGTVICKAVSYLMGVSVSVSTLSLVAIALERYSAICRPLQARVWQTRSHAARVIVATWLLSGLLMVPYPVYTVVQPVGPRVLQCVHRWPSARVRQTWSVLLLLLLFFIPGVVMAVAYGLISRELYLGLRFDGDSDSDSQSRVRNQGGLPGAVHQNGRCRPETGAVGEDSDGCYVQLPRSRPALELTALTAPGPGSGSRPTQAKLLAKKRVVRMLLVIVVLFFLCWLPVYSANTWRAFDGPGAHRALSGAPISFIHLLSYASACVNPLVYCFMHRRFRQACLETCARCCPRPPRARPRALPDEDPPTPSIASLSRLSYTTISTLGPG
As to the kind of experiment: Displacement of [125I]-CCK-8 from human CCK2R expressed in human 1321N1 cell membranes after 2 hrs by SPA assay.

The target in assay [4] is T2, Gastrin/cholecystokinin type B receptor. As to the kind of experiment: Agonist activity at human CCK2R expressed in human 1321N1 cells assessed as IP1 accumulation after 1 hr by HTRF assay. The assay is classed as functional, cell-based.

With `CSCC[C@H](NC(=O)[C@H](Cc1c[nH]c2ccccc12)NC(=O)CNC(=O)[C@H](Cc1ccc(O)cc1)NC(=O)[C@H](C)NC(=O)[C@H](CCC(=O)O)NC(=O)[C@H](CCC(=O)O)NC(=O)[C@H](CCC(=O)O)NC(=O)[C@H](CCC(=O)O)NC(=O)[C@H](CCC(=O)O)NC(=O)[C@H](CC(C)C)NC(=O)[C@H](Cc1c[nH]c2ccccc12)NC(=O)[C@@H]1CCCN1C(=O)CNC(=O)[C@@H]1CCC(=O)N1)C(=O)N[C@@H](CC(=O)O)C(=O)N[C@@H](Cc1ccccc1)C(N)=O`, in assay [1], the IC50 was 851 nM. Besides, in assay [2], the EC50 is 269 nM.

With `CCCC[C@H](NC(=O)[C@H](Cc1ccc(O)cc1)NC(=O)[C@H](CC(=O)O)NC(=O)COCCOCCNC(=O)COCCOCCNC(=O)CC[C@H](NC(=O)CCCCCCCCCCCCCCCCC(=O)O)C(=O)O)C(=O)NCC(=O)N[C@@H](Cc1c[nH]c2ccccc12)C(=O)N[C@@H](CCCCNC(=O)Nc1ccccc1C)C(=O)N[C@@H](CC(=O)O)C(=O)N(C)[C@@H](Cc1ccccc1)C(N)=O`, the IC50 was 0.339 nM in assay [1] and 759 nM in assay [3]. The EC50 in assay [2] was 0.107 nM; in assay [4], 5.01 nM.

In assay [3], `CCCC[C@H](NC(=O)[C@H](Cc1c[nH]c2ccccc12)NC(=O)CNC(=O)[C@H](CC(C)C)NC(=O)[C@H](Cc1ccc(OS(=O)(=O)O)cc1)NC(=O)[C@H](CC(=O)O)NC(=O)COCCOCCNC(=O)COCCOCCNC(=O)CC[C@H](NC(=O)CCCCCCCCCCCCCCCCC(=O)O)C(=O)O)C(=O)N(C)[C@@H](CC(=O)O)C(=O)N[C@@H](Cc1ccccc1)C(N)=O` gave an IC50 of 245 nM. Also, the EC50 in assay [4] is 1.55 nM.

With `CCCC[C@H](NC(=O)[C@H](Cc1c[nH]c2ccccc12)NC(=O)CNC(=O)[C@H](CC(C)C)NC(=O)[C@H](Cc1ccc(OS(=O)(=O)O)cc1)NC(=O)[C@H](CC(=O)O)NC(=O)COCCOCCNC(=O)COCCOCCNC(=O)CC[C@H](NC(=O)CCCCCCCCCCCCCCCCC(=O)O)C(=O)O)C(=O)N(C)[C@H](CC(=O)O)C(=O)N[C@@H](Cc1ccccc1)C(N)=O`, in assay [3], the IC50 is 5620 nM. In addition, the EC50 in assay [4] was 132 nM.

Take `CCCC[C@H](NC(=O)[C@H](Cc1c[nH]c2ccccc12)NC(=O)CNC(=O)[C@H](CC(C)C)NC(=O)[C@H](Cc1ccc(OS(=O)(=O)O)cc1)NC(=O)[C@H](CC(=O)O)NC(=O)COCCOCCNC(=O)COCCOCCNC(=O)CC[C@H](NC(=O)CCCCCCCCCCCCCCCCC(=O)O)C(=O)O)C(=O)N[C@@H](CC(=O)O)C(=O)N[C@@H](Cc1ccccc1)C(N)=O`: the IC50 was 0.275 nM in assay [1] and 0.166 nM in assay [3]. Further, the EC50 in assay [2] was 0.129 nM; in assay [4], 0.501 nM.

For `CCCC[C@H](NC(=O)[C@H](Cc1c[nH]c2ccccc12)NC(=O)CNC(=O)[C@H](CC(C)C)NC(=O)[C@H](Cc1ccc(OS(=O)(=O)O)cc1)NC(=O)[C@H](CC(=O)O)NC(=O)COCCOCCNC(=O)COCCOCCNC(=O)CC[C@H](NC(=O)CCCCCCCCCCCCCCCCC(=O)O)C(=O)O)C(=O)N(C)[C@H](CC(=O)O)C(=O)N(C)[C@@H](Cc1ccccc1)C(N)=O`, in assay [1], the IC50 is 0.0741 nM. The EC50 in assay [2] was 0.363 nM; in assay [4], 123 nM.

For the molecule `CCCC[C@H](NC(=O)[C@H](Cc1c[nH]c2ccccc12)NC(=O)CNC(=O)[C@H](CC(C)C)NC(=O)[C@H](Cc1ccc(CS(=O)(=O)O)cc1)NC(=O)[C@H](CC(=O)O)NC(=O)COCCOCCNC(=O)COCCOCCNC(=O)CC[C@H](NC(=O)CCCCCCCCCCCCCCC(=O)O)C(=O)O)C(=O)N(C)[C@H](CC(=O)O)C(=O)N(C)[C@@H](Cc1ccccc1)C(N)=O` ({C16 diacid-γGlu-AEEA-AEEA}-D[Phe(4-CH2SO3H)]LGW[Nle][dNMeD][NMeF]-NH2), the EC50 in assay [2] is 0.191 nM.

Take `CC(C)C[C@H](NC(=O)[C@H](Cc1ccc(OS(=O)(=O)O)cc1)NC(=O)[C@H](CC(=O)O)NC(=O)COCCOCCNC(=O)COCCOCCNC(=O)CC[C@H](NC(=O)CCCCCCCCCCCCCCCCC(=O)O)C(=O)O)C(=O)NCC(=O)N[C@@H](Cc1c[nH]c2ccccc12)C(=O)N[C@@H](C)C(=O)N(C)[C@H](CC(=O)O)C(=O)N(C)[C@@H](Cc1ccccc1)C(N)=O` ({C18 diacid-γGlu-AEEA-AEEA}-D[sY]LGWA[dNMeD][NMeF]-NH2): in assay [1], the IC50 was 0.617 nM. Further, the EC50 in assay [2] is 0.166 nM.
